Literature values, collected in US8399704B2, “Methods for salt production” (Colgate-Palmolive Company, priority 2008, dated 2013).

Details: room temperature, natural partial pressure (3.5×10^−4 atmosphere)

**Q.** For `O=C=O` [Carbon dioxide], which “maximum concentration of carbon dioxide in water” value is on record?
**A.** about 1.2×10^−5 M
